Source: article PMC2248166, “Quantitative peptide binding motifs for 19 human and mouse MHC class I molecules derived using positional scanning combinatorial peptide libraries” (Immunome Research, 2008)
Where a SMILES comes first, the peptide text is derived from it.

Target: HLA A*3001 (Homo sapiens, UniProt P04439, D140H/D185E/E176W/F33S/G80R/H175R/K168Q/R138E/R41S)
Experiment: biochemical
Type: binding

HLA A*3001, sequence (P04439 25-365 limits assumed, stated change not applied): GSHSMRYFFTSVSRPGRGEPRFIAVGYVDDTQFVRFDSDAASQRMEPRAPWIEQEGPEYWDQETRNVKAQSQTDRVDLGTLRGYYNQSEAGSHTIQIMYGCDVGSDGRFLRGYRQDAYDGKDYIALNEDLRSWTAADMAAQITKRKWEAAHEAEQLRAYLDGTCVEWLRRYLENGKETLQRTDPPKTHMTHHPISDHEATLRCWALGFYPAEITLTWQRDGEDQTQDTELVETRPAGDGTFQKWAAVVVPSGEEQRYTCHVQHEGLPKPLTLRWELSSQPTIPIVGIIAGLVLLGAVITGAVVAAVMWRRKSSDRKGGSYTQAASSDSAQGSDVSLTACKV

Row | SMILES | IC50 [nM]
1 | CC(C)C[C@H](NC(=O)[C@H](Cc1ccc(O)cc1)NC(=O)[C@H](CC(C)C)NC(=O)[C@H](Cc1ccccc1)NC(=O)[C@H](C)NC(=O)[C@H](Cc1ccccc1)NC(=O)[C@H](CCCNC(=N)N)NC(=O)[C@H](Cc1ccc(O)cc1)NC(=O)[C@@H](N)CCCNC(=N)N)C(=O)O [3102.0049] (H-RYRFAFLYL-OH) | 0.17
2 | CC[C@H](C)[C@H](NC(=O)[C@H](Cc1c[nH]cn1)NC(=O)[C@H](Cc1ccccc1)NC(=O)[C@H](CO)NC(=O)[C@@H](NC(=O)[C@@H](N)CCCCN)[C@@H](C)O)C(=O)N[C@H](C(=O)N[C@@H](Cc1ccccc1)C(=O)N[C@@H](CC(C)C)C(=O)O)[C@@H](C)CC [3102.0050] (H-KTSFHIIFL-OH) | 25
3 | CC[C@H](C)[C@H](NC(=O)[C@H](CC(N)=O)NC(=O)[C@H](CC(=O)O)NC(=O)[C@H](CO)NC(=O)[C@H](CCCNC(=N)N)NC(=O)[C@@H](NC(=O)[C@@H](N)CCCCN)[C@@H](C)CC)C(=O)N[C@@H](CCCCN)C(=O)N[C@@H](CCCCN)C(=O)O [3102.0051] (H-KIRSDNIKK-OH) | 12
4 | CC[C@H](C)[C@H](NC(=O)[C@H](Cc1ccc(O)cc1)NC(=O)[C@@H](NC(=O)[C@H](CCCCN)NC(=O)[C@H](CCCCN)NC(=O)[C@H](Cc1ccccc1)NC(=O)[C@@H](N)CCCNC(=N)N)C(C)C)C(=O)N[C@@H](CC(C)C)C(=O)N[C@H](C(=O)O)C(C)C [3102.0055] (H-RFKKVYILV-OH) | 13
5 | CC[C@H](C)[C@H](NC(=O)[C@H](CCCNC(=N)N)NC(=O)[C@H](CC(N)=O)NC(=O)[C@@H](NC(=O)[C@H](CCC(=O)O)NC(=O)[C@H](CCCCN)NC(=O)[C@@H](NC(=O)[C@@H](N)CCCCN)[C@@H](C)O)[C@@H](C)O)C(=O)N[C@@H](Cc1ccc(O)cc1)C(=O)O [3102.0056] (H-KTKETNRIY-OH) | 11
6 | CC[C@H](C)[C@H](NC(=O)[C@H](CCCNC(=N)N)NC(=O)CNC(=O)[C@@H](N)CCCCN)C(=O)N[C@@H](CO)C(=O)N[C@@H](Cc1ccc(O)cc1)C(=O)N[C@@H](Cc1ccc(O)cc1)C(=O)N[C@@H](CCC(=O)O)C(=O)N[C@@H](CCSC)C(=O)O [3102.0058] (H-KGRISYYEM-OH) | 14
7 | CSCC[C@H](NC(=O)[C@H](CC(N)=O)NC(=O)[C@H](CCCNC(=N)N)NC(=O)[C@@H](NC(=O)[C@@H](N)CCCNC(=N)N)[C@@H](C)O)C(=O)N[C@@H](Cc1ccccc1)C(=O)N[C@@H](CCCNC(=N)N)C(=O)N[C@@H](CCCCN)C(=O)N[C@@H](CCCCN)C(=O)O [3102.0060] (H-RTRNMFRKK-OH) | 0.089
8 | CC[C@H](C)[C@H](NC(=O)[C@H](C)NC(=O)[C@H](CO)NC(=O)[C@@H](NC(=O)[C@H](CO)NC(=O)[C@@H](NC(=O)[C@@H](N)CCCNC(=N)N)C(C)C)C(C)C)C(=O)N[C@@H](CC(C)C)C(=O)N[C@@H](CC(C)C)C(=O)O [3102.0061] (H-RVSVSAILL-OH) | 15
9 | CSCC[C@H](NC(=O)[C@H](CC(C)C)NC(=O)[C@@H](NC(=O)[C@@H](N)Cc1c[nH]cn1)C(C)C)C(=O)N[C@@H](Cc1c[nH]cn1)C(=O)N[C@@H](CO)C(=O)N1CCC[C@H]1C(=O)N[C@@H](CC(C)C)C(=O)N[C@H](C(=O)O)C(C)C [3102.0062] (H-HVLMHSPLV-OH) | 30
10 | CC[C@H](C)[C@H](N)C(=O)N[C@@H](CO)C(=O)N[C@@H](CCCNC(=N)N)C(=O)N[C@@H](CO)C(=O)N[C@@H](CCCNC(=N)N)C(=O)N[C@@H](CCCNC(=N)N)C(=O)N[C@@H](CC(C)C)C(=O)N[C@@H](Cc1ccccc1)C(=O)N[C@@H](C)C(=O)O [3102.0065] (H-ISRSRRLFA-OH) | 2.2
11 | CC[C@H](C)[C@H](NC(=O)[C@@H](NC(=O)[C@@H](NC(=O)[C@H](CC(=O)O)NC(=O)[C@H](CCCCN)NC(=O)[C@@H](NC(=O)[C@H](C)N)C(C)C)C(C)C)[C@@H](C)O)C(=O)N[C@H](C(=O)N[C@@H](CCCCN)C(=O)O)[C@@H](C)O [3102.0067] (H-AVKDVTITK-OH) | 2.2
12 | CC(C)[C@H](NC(=O)[C@@H](N)Cc1c[nH]cn1)C(=O)N[C@@H](Cc1ccc(O)cc1)C(=O)N[C@@H](CC(=O)O)C(=O)N[C@@H](Cc1ccccc1)C(=O)N[C@@H](CCC(=O)O)C(=O)N1CCC[C@H]1C(=O)N[C@@H](Cc1ccc(O)cc1)C(=O)N[C@@H](Cc1ccc(O)cc1)C(=O)O [3102.0068] (H-HVYDFEPYY-OH) | 27
13 | CC[C@H](C)[C@H](NC(=O)[C@H](CCCNC(=N)N)NC(=O)[C@H](CCC(N)=O)NC(=O)[C@@H](N)CCSC)C(=O)N[C@H](C(=O)N[C@@H](CO)C(=O)N[C@@H](CC(C)C)C(=O)N[C@@H](CO)C(=O)N[C@H](C(=O)O)C(C)C)[C@@H](C)CC [3102.0069] (H-MQRIISLSV-OH) | 8.8
14 | CC(C)[C@H](NC(=O)[C@H](CO)NC(=O)[C@@H]1CCCN1C(=O)[C@H](CO)NC(=O)[C@H](C)NC(=O)[C@H](Cc1ccc(O)cc1)NC(=O)[C@H](Cc1ccccc1)NC(=O)CNC(=O)[C@@H](N)CCCCN)C(=O)O [3102.0070] (H-KGFYASPSV-OH) | 2.7
15 | CC(C)[C@H](NC(=O)[C@H](CCC(N)=O)NC(=O)[C@@H](NC(=O)[C@H](CCCNC(=N)N)NC(=O)[C@H](CCC(=O)O)NC(=O)[C@@H](NC(=O)[C@H](CCCNC(=N)N)NC(=O)[C@H](CO)NC(=O)[C@@H](N)CCCCN)C(C)C)C(C)C)C(=O)O [3102.0075] (H-KSRVERVQV-OH) | 11
16 | CC[C@H](C)[C@H](NC(=O)[C@H](CC(N)=O)NC(=O)[C@@H](NC(=O)[C@@H](NC(=O)[C@H](Cc1ccccc1)NC(=O)[C@@H](NC(=O)[C@H](C)N)[C@@H](C)O)[C@@H](C)O)C(C)C)C(=O)N[C@@H](Cc1ccccc1)C(=O)N[C@@H](CCCCN)C(=O)O [3102.0081] (H-ATFTVNIFK-OH) | 3.1
17 | CC(C)C[C@H](NC(=O)[C@H](CCCNC(=N)N)NC(=O)[C@@H](NC(=O)[C@@H](N)CCCNC(=N)N)C(C)C)C(=O)N[C@@H](CCCNC(=N)N)C(=O)N[C@@H](Cc1ccc(O)cc1)C(=O)N[C@@H](CCCNC(=N)N)C(=O)N[C@@H](CO)C(=O)NCC(=O)O [3102.0082] (H-RVRLRYRSG-OH) | 13
18 | CC[C@H](C)[C@H](NC(=O)[C@@H](N)CCCNC(=N)N)C(=O)N[C@@H](CCCNC(=N)N)C(=O)N[C@@H](Cc1ccccc1)C(=O)N[C@@H](Cc1ccccc1)C(=O)N[C@@H](Cc1ccc(O)cc1)C(=O)N[C@@H](CCCNC(=N)N)C(=O)N[C@@H](CCCCN)C(=O)N[C@@H](CCCCN)C(=O)O [3102.0083] (H-RIRFFYRKK-OH) | 0.17
19 | CC[C@H](C)[C@H](NC(=O)[C@H](CCSC)NC(=O)[C@H](CC(C)C)NC(=O)[C@@H]1CCCN1C(=O)[C@H](CCCNC(=N)N)NC(=O)[C@H](Cc1ccccc1)NC(=O)[C@@H](N)CCCCN)C(=O)N[C@@H](Cc1ccccc1)C(=O)N[C@@H](CCSC)C(=O)O [3102.0084] (H-KFRPLMIFM-OH) | 1.8
20 | CC[C@H](C)[C@H](NC(=O)[C@@H](NC(=O)[C@H](Cc1c[nH]c2ccccc12)NC(=O)[C@H](Cc1ccccc1)NC(=O)CNC(=O)[C@H](CO)NC(=O)[C@H](CCCNC(=N)N)NC(=O)[C@H](Cc1ccc(O)cc1)NC(=O)[C@@H](N)CCCNC(=N)N)[C@@H](C)CC)C(=O)O [3102.0085] (H-RYRSGFWII-OH) | 8.7
21 | CC[C@H](C)[C@H](NC(=O)[C@H](Cc1ccccc1)NC(=O)[C@H](Cc1ccccc1)NC(=O)[C@H](CO)NC(=O)[C@H](CC(N)=O)NC(=O)[C@H](CO)NC(=O)[C@H](CC(C)C)NC(=O)[C@@H](N)Cc1c[nH]cn1)C(=O)N[C@@H](CCCCN)C(=O)O [3102.0086] (H-HLSNSFFIK-OH) | 17
